Assay results taken from US20050026850A1, “Combination of dehydroepiandrosterone or dehydroepiandrosterone-sulfate with a tyrosine kinase inhibitor, delta opioid receptor antagonist, neurokinin receptor antagonist, or VCAM inhibitor for treatment of asthma or chronic obstructive pulmonary disease” (priority 2003, published 2005).
Several values for one entry are separate records, joined by “and”; a condition that tells them apart may be missing. Equal values may be shown once.

Legend:
[1] = test system: Intracellular adenosine; test: In vivo effect on adenosine levels in various rat tissues
[2] = Solid-state stability with and without lactose at 50° C. (DHEA formation by HPLC); assay type: physicochemical; settings: for DHEA % formed from Anhydrous DHEA-S / Percent DHEA formed from DHEA-S Dihydrate: Control, neat, sealed, 25° C.
Description: These conditions were used to stress the formulation in order to predict its long-term stability results. […] The primary degradant is DHEA. […] The materials on accelerated storage become more cohesive with time as evidenced by clumping during sample weighing for chemical analysis. […] This is a considerable disadvantage since lactose is the most commonly used inhalation excipient for dry powder formulations. Continuing with the virtually anhydrous form would mean limiting formulations to neat powder or undertaking more comprehensive safety studies to use a novel excipient.

[3] = test system: HT-29 SF cells; test: DHEA effect on cell growth; assay type: cell-based, human
[4] = test system: HT-29 SF cells; test: DHEA effect on cell cycle (flow cytometry); assay type: cell-based, human
Procedure: Cells were plated at 10^5/60-mm dish in duplicate. […] Cultures were trypsinized following 0, 24, 48, or 74 hours and fixed and stained using a modification of a procedure of Bauer et al., Cancer Res. 46, 3173-3178 (1986). Briefly, cells were collected by centrifugation and resuspended in cold phosphate-buffered saline. Cells were fixed in 70% ethanol, washed, and resuspended in phosphate-buffered saline.
After 24, 48, and 72 hours, cells were harvested, fixed in ethanol, and stained with propidium iodide, and the DNA content/cell was determined by flow cytometric analysis. The percentage of cells in G1, S, and G2M phases was calculated using the Cellfit cell cycle analysis program. S phase is marked by a quadrangle for clarity. Representative histograms from duplicate determinations are shown. The experiment was repeated three times.

[5] = HPLC analysis of drug degradation during jet milling micronization; assay type: physicochemical; settings: single-pass and double-pass jet milled, HPLC peak area versus unmilled standard
Procedure: Two vials (A; single-pass; 150 mg) and (B double-pass; 600 mg) of the micronized drug were available for determining drug degradation during jet milling micronization. […] The chromatographic peak area for the HPLC assay of the unmilled drug standard solution (10 mg/ml) gave a value of 23,427. […] The chromatographic peak areas for vials A and B were 11,979 and 11,677, respectively.

[6] = Solubility of DHEA-S; assay type: physicochemical; settings: 15° C., 20 mM Na+, from Ksp by quadratic formula
Description: Inhalation of pure water can produce a cough stimulus. […] The temperature effect is weaker at high NaCl concentrations.

[7] = Short-term solution stability of DHEA-S formulation; assay type: physicochemical; settings: 7.5 mg/mL of DHEA-S in 0.12% NaCl, RT
Procedure: Aliquots of this solution are filled into clear glass vials and stored at RT (24-26° C.) and at 40° C. The samples are checked daily for DHEA-S content, DHEA content, and appearance. For each time point, duplicate samples are withdrawn and diluted from each vial. […] The study is stopped on day three. […] The solution should easily be stable for the day of reconstitution in a clinical trial. The following section describes the aerosol properties of this formulation.

[8] = Nebulizer studies; settings: 0.12% NaCl (20 mM Cl−), Pari LC Plus nebulizer, 5 mL
Description: The collection apparatus, nebulizer, and imp actor are rinsed with mobile phase and assayed by HPLC.

[9] = test system: rat peritoneal mast cells; test: Compound 48/80 histamine release from rat peritoneal mast cells; assay type: cell-based; settings: for % Inhibition of Histamine Release: DHEA-S 0; for effect on compound 48/80 induced mast cell degranulation: antagonist alone, 1-100 nM
[10] = test system: NK1; settings: printed under the compound name in the table, no method or source; cited from earlier work

**Q.** Which “Intracellular adenosine, Brain” value ([1]; Fischer 344 rats, once daily 14 days, DHEA 300 mg/kg, methyltestosterone 120 mg/kg, folinic acid 50 mg/kg i.p., mean ± SEM, control 0.5 ± 0.04) does the source give for `Nc1nc(=O)c2c([nH]1)NCC(CNc1ccc(C(=O)N[C@@H](CCC(=O)O)C(=O)O)cc1)N2C=O` (mixture of isomers) [Folinic Acid, Folinic acid] here?
**A.** 0.72 ± 0.09 nmols/mg protein

**Q.** What about the “effect of folinic acid administered alone on adenosine levels” value ([1]; rats, folinic acid 50 mg/kg i.p. 14 days) of the same compound?
**A.** increase in adenosine levels for all organs studied

**Q.** What about the “effect of coadministration of folinic acid on steroid-mediated adenosine depletion” value ([1]; rats, folinic acid 50 mg/kg i.p. with DHEA or methyltestosterone) of the same compound?
**A.** completely abrogated steroid-mediated adenosine depletion

**Q.** Which results are given for `C[C@]12CC[C@H](OS(=O)(=O)[O-])CC1=CC[C@@H]1[C@@H]2CC[C@]2(C)C(=O)CC[C@@H]12.[Na+]` [Anhydrous DHEA-S]?
**A.** DHEA % formed from Anhydrous DHEA-S at 50° C. ([2]; 1 week): 9.817%; DHEA % formed from Anhydrous DHEA-S at 50° C. ([2]; 2 weeks): 14.954%; DHEA % formed from Anhydrous DHEA-S at 50° C. ([2]; 4 weeks): 20.171%; DHEA % formed from Anhydrous DHEA-S ([2]; 1 week): 2.694%; DHEA % formed from Anhydrous DHEA-S ([2]; 2 weeks): 2.370%; DHEA % formed from Anhydrous DHEA-S ([2]; 4 weeks): 2.666%; DHEA % formed from Anhydrous DHEA-S ([2]; Time (Weeks), initial value): 2.774%

**Q.** Which results are given for `C[C@]12CC[C@H](O)CC1=CC[C@@H]1[C@@H]2CC[C@]2(C)C(=O)CC[C@@H]12` [DHEA, 3β-hydroxyandrost-5-en-17-one]?
**A.** exposure time after which cell number was reduced compared to controls ([3]; 12.5 μM): 72 h; exposure time after which cell number was reduced compared to controls ([3]; 25 μM): 48 h; exposure time after which cell number was reduced compared to controls ([3]; 50 μM): 48 h; exposure time after which cell number was reduced compared to controls ([3]; 200 μM): 24 h; effect on tissue adenosine ([1]; rat, in vivo): multi-organ depletion of adenosine; cell cycle effect (summary) ([4]; 25-200 μM, 24-72 hours): G1 block in HT-29 SF cells in a time-and dose-dependent manner; cell cycle distribution ([4]; 25 or 50 μM, 72 hours): the percentage of cells in G1 phase was increased after 72 hours

**Q.** For `CC12CCC3C(CC=C4CC(OS(=O)(=O)[O-])CCC43C)C1CCC2=O.[Na+]` (centres unmarked) [DHEA-S Dihydrate], which “Percent DHEA formed from DHEA-S Dihydrate at 50° C.” value (“Percent DHEA formed … at 50° C.” for short) ([2]; 1 week) is on record?
**A.** 0.216%

**Q.** What about the “Percent DHEA formed … at 50° C.” value ([2]; 3 weeks) of the same compound?
**A.** 0.317%

**Q.** What about the “Percent DHEA formed … at 50° C.” value ([2]; 4 weeks) of the same compound?
**A.** 0.374%

**Q.** And the “Percent DHEA formed from DHEA-S Dihydrate” value ([2]; 4 weeks)?
**A.** 0.218%

**Q.** What about the “Percent DHEA formed from DHEA-S Dihydrate” value ([2]; Time (Weeks), initial value) of the same compound?
**A.** 0.213%

**Q.** For `C[C@]12CC[C@H](OS(=O)(=O)[O-])CC1=CC[C@@H]1[C@@H]2CC[C@]2(C)C(=O)CC[C@@H]12.[Na+]` [DHEA-S, sodium dehydroepiandrostenone sulfate], which “drug degradation during jet milling micronization” value [5] is on record?
**A.** no detectable degradation of the drug during the jet milling micronization process

**Q.** What about the “calculated DHEA-S solution concentration” value [6] of the same compound?
**A.** 27.5 mM and 10.7 mg/mL

**Q.** What about the “stability of nebulizer formulation” value [7] of the same compound?
**A.** stable for at least one day at RT

**Q.** What about the “highest solution concentration that will not precipitate during nebulization” value [8] of the same compound?
**A.** approximately 7.5 mg/mL

**Q.** Which “Intracellular adenosine, Brain” value ([1]; rat, in vivo) does the source give for `C[C@]12CCC(=O)C=C1CC[C@@H]1[C@@H]2CC[C@@]2(C)[C@H]1CC[C@]2(C)O` [Methyltestosterone, methyltestosterone] here?
**A.** 0.42 ± 0.06 and 0.32 ± 0.03

**Q.** And the “Intracellular adenosine, Heart” value ([1]; rat, in vivo)?
**A.** 8.3 ± 1.0 and 6.0 ± 0.4

**Q.** What about the “effect on tissue adenosine” value ([1]; rat, in vivo) of the same compound?
**A.** multi-organ depletion of adenosine

**Q.** With `C=CCN1CC[C@]23c4c5ccc(O)c4O[C@H]2C(=O)CC[C@@]3(O)[C@H]1C5` [Naloxone, naloxone] as the compound, how does the “% Inhibition of Histamine Release” value ([9]; antagonist 1 nM) read?
**A.** −1%

**Q.** What about the “% Inhibition of Histamine Release” value ([9]; antagonist 10 nM) of the same compound?
**A.** −1%

**Q.** And the “% Inhibition of Histamine Release” value ([9]; antagonist 100 nM)?
**A.** −2%

**Q.** What about the “effect on compound 48/80 induced mast cell degranulation” value [9] of the same compound?
**A.** minimal effect (if any)

**Q.** Which IC50 [10] does the source give for `CC(C)Oc1cccc(CC(=O)N2CCC[C@](CC[N+]34CCC(c5ccccc5)(CC3)CC4)(c3ccc(Cl)c(Cl)c3)C2)c1` [SR 140333] here?
**A.** 0.05 µM

**Q.** What about the “% Inhibition of Histamine Release” value ([9]; antagonist 1 nM) of the same compound?
**A.** 1%

**Q.** What about the “% Inhibition of Histamine Release” value ([9]; antagonist 30 nM) of the same compound?
**A.** −8%

**Q.** And the “% Inhibition of Histamine Release” value ([9]; antagonist 100 nM)?
**A.** −5%

**Q.** And the “effect on compound 48/80 induced mast cell degranulation” value [9]?
**A.** minimal effect (if any)
